Data taken from patent publication US20240075004A1, “VERY-LONG-CHAIN POLYUNSATURATED FATTY ACIDS, ELOVANOID HYDROXYLATED DERIVATIVES, AND METHODS OF USE” (The Board of Supervisors of Louisiana State University and …, priority 2020, published 2024).

What was measured:
[1] = system: human RPE cells; assay: Oxidative-stress and Erastin induced cell death in human RPE cells; format: cell-based
[2] = system: senescence, autophagy, AMD, ECM remodeling and apoptosis genes; assay: RPE and retina gene expression (qPCR) after subretinal OAβ (1-42) injection; format: in vivo, C57BL/6J WT mice; conditions: OAβ subretinally administered in WT mice
Experimental: All animal experiments were performed according to ARVO Statement for the Use of Animals in Ophthalmic and Vision Research, and the protocol was approved by LSU Health New Orleans' Institutional Animal Care and Use Committee (IACUC). 6-month-old 5×FAD mice (stock number: 34848-JAX, The Jackson Laboratory, Bar Harbor, ME, USA), co-overexpress FAD mutant forms of human amyloid precursor protein (the Swedish mutation: K670N, M671L; the Florida mutation: I716V; and the London mutation: V7171) and presenilin 1 (PS1, encoded by Psen1: M146L, L286V) transgenes under transcriptional control of the neuron-specific mouse Thy1 promoter. 5×FAD mice were hemizygotes with respect to the transgenes and non-transgenic WT littermates. Genotyping was performed by PCR of tail DNA. All analyses were carried out blind with respect to the mice genotype. […]
For the in vivo experiments, eyeballs were enucleated and anterior segment containing the cornea, lens and iris removed and the retina separated from the rest of the eyecup (RPE/choroid). […] Quantitative PCR was performed in a CFX-384 Real-Time PCR system (Bio-Rad). The expression of target genes was normalized to the geometric mean of housekeeping genes and relative expression was calculated by the comparative threshold cycle method (ΔΔCT).

[3] = system: pro-inflammatory transcriptome and pro-homeostatic pathways in RPE single-cells; assay: UOS transcriptome in RPE single-cells; format: cell-based; conditions: 96 per sample
Source text: Dots in box plots represent expression of the gene for a single RPEC (total of 96 per sample). P<0.001 (***), P<0.01 (**), One-way Anova, with Post-Hoc Tukey HSD test for multiple comparisons.

[4] = system: ARPE-19 cells; assay: Protein abundance and apoptosis in ARPE-19 cells undergoing UOS; format: cell-based; conditions: RPE cells under UOS; sodium salt forms
Experimental: ELV-N32 or ELV-N34 indicates the sodium salt forms, and ELV-N34-Me or ELV-N32-Me indicates the methyl ester forms. ELVs induces the following effects in ARPE-19 cells undergoing UOS: (panel a) Concentration-dependent (100 and 250 nM) upregulation of SIRT1. The results are the averages of three independent experiments; (panel b) upregulation of Iduna abundance; (panel c) increased abundance of anti-apoptotic proteins Bcl-2 and Bcl-xL; (panel d) decreased abundance of pro-apoptotic proteins Bax, (panel e) Bid and (panel f) Bim. (panel g) Concentration-dependent (100 and 250 nM) upregulation of Prohibitin (type-1) by ELVs takes place. (panel h) Concentration-dependent (50, 100, 250, and 500 nM) reduction of UOS-induced apoptosis. Error bars, SEM; *p<0.05.

[5] = system: Adiponectin; assay: Adiponectin levels in diabetic hypothalamus and adipose tissue
[6] = system: degenerating neurons of hypothalamus; assay: Fluoro-Jade B staining of organotypic slices of hypothalamus; format: cell-based; conditions: 500 nM, 48 h incubation, adult obese diabetic db/db mice
Source text: Fluoro-Jade b (F-Jb) stains degenerating neurons.

[7] = system: TP53 and IL8; assay: Human adipocytes treated with IL1β: TP53 and IL8 expression by Taqman Real time PCR; format: cell-based
Source text: A) experimental design. B) expression levels of TP53 and IL8 in human diabetic and non-diabetic adipocytes by the means of Tagman Real time PCR.

[8] = system: IL6; assay: IL6 (marker of SASP) induced by IL1β in diabetic hypothalamus; format: cell-based; conditions: diabetic db/db mice hypothalamus, different effects in female and male mice
[9] = system: autophagy, UPR, MMP, senescence and inflammation genes in HNEpC; assay: HNEpC challenged with HDM: gene expression; format: cell-based, human; conditions: 500 nM; HDM 30 μg/ml
Experimental: HDM triggered multiple signaling in human nasal epithelial cells. HNEpC challenged with HDM (D. farinae+D. pteronyssinus) (30 μg/ml) induces the expression of several genes related with autophagy (ATG3, ATG5, ATG7, BECLIN-1, and P62), unfolded protein response (UPR) (ATF6, CHOP, and IRE1) and matrix metalloproteinases (MMPs) (MMP8, MMP2, MMP9, MMP3, MMP12, TIMP1, and TIMP2). HDM stressors also induce the expression of senescence (P21, P16, P27, and P53) and inflammation genes (IL-1a, IL-6, and IL-10) on HNEpC. […] (*p<0.0001).

Row | SMILES | oxidative-stress and Erastin induced cell deaths [1] | OAβ-activated senescence program (p16INK4a, MMP1, p53, p21, p27, Il-6 gene expression, SASP secretome) followed by RPE and PRC demise [2] | UOS up-regulation of pro-inflammatory transcriptome and down-regulation of pro-homeostatic pathways [3] | abundance of cell damaging proteins [4] | abundance of pro-homeostatic proteins [4] | adiponectin in subcutaneous adipose tissue (SAT) and visceral adipose tissue (VAT) [5] | levels of Adiponectin ([5]; ELV34 treatment) | adiponectin in diabetic hypothalamus ([5]; female and males) | Fluoro-Jade b (F-Jb) signal (neuroprotection) [6] | IL8 brought down (elevated by IL1β) ([7]; 500 nM, both diabetic and non-diabetic adipocytes) | levels of TP53 mRNA ([7]; human adipocytes from diabetic patient treated with IL1β) | effect of IL1β (expression levels of TP53 and IL8) ([7]; human diabetic adipocytes) | levels of IL6 (marker of SASP) [8] | expression of MMP genes (MMP8, MMP2, MMP9, MMP3, MMP12, TIMP1, TIMP2) [9] | expression of inflammation / senescence-associated cytokine genes [9] | expression of senescence genes (P21, P16, P27; except P53) [9]
1 | CC/C=C\C[C@H](O)\C=C/C=C/C=C/[C@H](O)C/C=C\C/C=C\CCCCCCCCCCCCC(=O)O [ELV-N-32] | counteracted | blunt these events and elicit protection to both cells | suppress these changes | decrease abundance | enhance abundance | – | – | – | – | – | – | – | – | – | – | –
2 | CC/C=C\C[C@H](O)\C=C/C=C/C=C/[C@H](O)C/C=C\C/C=C\CCCCCCCCCCCCCCC(=O)O [ELV-N-34] | – | blunt these events and elicit protection to both cells | – | decrease abundance | enhance abundance | Differential effect | increased | trend of increase | decrease of F-Jb signal | around 40 folds | down to non-diabetic control levels | revert the effect | reduced | inhibits these effects | inhibits these effects | inhibits these effects
